According to the supplement of paper PMC10307832:

What was measured:
Assay in all cases: relative viability (nuclei count vs DMSO), 5 days (fraction); higher = more cells survive
NCI-H2228 = system: NCI-H2228
Outline: (§1)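 Values are medians from duplicate plates. Each reflects relative viability, defined as the nuclei count of treated wells over that of vehicle wells. Lung cancer cell lines in 1536-well plates were pin-tool dosed one day after seeding with one drug alone or with a fixed anchor-drug dose plus five library-drug doses (not always all listed) in √10 steps, then fixed, stained and imaged at 4× after 5 days.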

NCI-H1755 = system: NCI-H1755
Outline: as §1

LK-2 = system: LK-2
Outline: as §1

UMC-11 = system: UMC-11
Outline: as §1

ABC-1 = system: ABC-1
Outline: as §1

NCI-H838 = system: NCI-H838
Outline: as §1

NCI-H1355 = system: NCI-H1355
Outline: as §1

NCI-H1666 = system: NCI-H1666
Outline: as §1

NCI-H520 = system: NCI-H520
Outline: as §1

HCC-366 = system: HCC-366
Outline: as §1

NCI-H358 = system: NCI-H358
Outline: as §1

NCI-H1650 = system: NCI-H1650
Outline: as §1

201T = system: 201T
Outline: as §1

NCI-H727 = system: NCI-H727
Outline: as §1

HCC-44 = system: HCC-44
Outline: as §1

NCI-H2347 = system: NCI-H2347
Outline: as §1

HCC-78 = system: HCC-78
Outline: as §1

SW 1573 = system: SW 1573
Outline: as §1

NCI-H1734 = system: NCI-H1734
Outline: as §1

BEN = system: BEN
Outline: as §1

NCI-H2009 = system: NCI-H2009
Outline: as §1

NCI-H2405 = system: NCI-H2405
Outline: as §1

LOU-NH91 = system: LOU-NH91
Outline: as §1

## O=C(O)CCCCC(CCSCc1ccccc1)SCc1ccccc1 (centres undefined) [CPI-613] + COc1cccc2cc(-c3nc([C@H]4CC[C@H](C(=O)O)CC4)n4ncnc(N)c34)[nH]c12 [OSI-027] (partner 0.5 µM)
NCI-H2228; first compound 5 µM
  relative viability: 0.538
NCI-H2228; first compound 15.81 µM
  relative viability: 0.467
NCI-H2228; first compound 50 µM
  relative viability: 0.525
NCI-H2228; first compound 158.11 µM
  relative viability: 0.192
NCI-H2228; first compound 500 µM
  relative viability: 0.072
NCI-H1755; first compound 5 µM
  relative viability: 0.693
NCI-H1755; first compound 15.81 µM
  relative viability: 0.687
NCI-H1755; first compound 50 µM
  relative viability: 0.66
NCI-H1755; first compound 158.11 µM
  relative viability: 0.504
NCI-H1755; first compound 500 µM
  relative viability: 0.207
LK-2; first compound 5 µM
  relative viability: 0.189
LK-2; first compound 15.81 µM
  relative viability: 0.19
LK-2; first compound 50 µM
  relative viability: 0.18
LK-2; first compound 158.11 µM
  relative viability: 0.161
LK-2; first compound 500 µM
  relative viability: 0.128
UMC-11; first compound 5 µM
  relative viability: 0.407
UMC-11; first compound 15.81 µM
  relative viability: 0.369
UMC-11; first compound 50 µM
  relative viability: 0.426
UMC-11; first compound 158.11 µM
  relative viability: 0.124
UMC-11; first compound 500 µM
  relative viability: 0.118
ABC-1; first compound 5 µM
  relative viability: 0.404
ABC-1; first compound 15.81 µM
  relative viability: 0.443
ABC-1; first compound 50 µM
  relative viability: 0.49
ABC-1; first compound 158.11 µM
  relative viability: 0.175
ABC-1; first compound 500 µM
  relative viability: 0.167
NCI-H838; first compound 5 µM
  relative viability: 0.354
NCI-H838; first compound 15.81 µM
  relative viability: 0.335
NCI-H838; first compound 50 µM
  relative viability: 0.301
NCI-H838; first compound 158.11 µM
  relative viability: 0.235
NCI-H838; first compound 500 µM
  relative viability: 0.0809
NCI-H1355; first compound 5 µM
  relative viability: 0.388
NCI-H1355; first compound 15.81 µM
  relative viability: 0.347
NCI-H1355; first compound 50 µM
  relative viability: 0.345
NCI-H1355; first compound 158.11 µM
  relative viability: 0.29
NCI-H1355; first compound 500 µM
  relative viability: 0.0712
NCI-H1666; first compound 5 µM
  relative viability: 0.866
NCI-H1666; first compound 15.81 µM
  relative viability: 0.856
NCI-H1666; first compound 50 µM
  relative viability: 0.798
NCI-H1666; first compound 158.11 µM
  relative viability: 0.281
NCI-H1666; first compound 500 µM
  relative viability: 0.151
NCI-H520; first compound 5 µM
  relative viability: 0.268
NCI-H520; first compound 15.81 µM
  relative viability: 0.243
NCI-H520; first compound 50 µM
  relative viability: 0.208
NCI-H520; first compound 158.11 µM
  relative viability: 0.179
NCI-H520; first compound 500 µM
  relative viability: 0.141
HCC-366; first compound 5 µM
  relative viability: 0.924
HCC-366; first compound 15.81 µM
  relative viability: 0.787
HCC-366; first compound 50 µM
  relative viability: 1.08
HCC-366; first compound 158.11 µM
  relative viability: 0.244
HCC-366; first compound 500 µM
  relative viability: 0.0116
NCI-H358; first compound 15.81 µM
  relative viability: 0.655
NCI-H358; first compound 50 µM
  relative viability: 0.639
NCI-H358; first compound 158.11 µM
  relative viability: 0.303
NCI-H358; first compound 500 µM
  relative viability: 0.0233
NCI-H1650; first compound 5 µM
  relative viability: 0.592
NCI-H1650; first compound 15.81 µM
  relative viability: 0.566
NCI-H1650; first compound 50 µM
  relative viability: 0.58
NCI-H1650; first compound 158.11 µM
  relative viability: 0.14
NCI-H1650; first compound 500 µM
  relative viability: 0.0159
201T; first compound 5 µM
  relative viability: 0.754
201T; first compound 15.81 µM
  relative viability: 0.711
201T; first compound 50 µM
  relative viability: 0.606
201T; first compound 158.11 µM
  relative viability: 0.678
201T; first compound 500 µM
  relative viability: 0.818
NCI-H727; first compound 5 µM
  relative viability: 0.554
NCI-H727; first compound 15.81 µM
  relative viability: 0.624
NCI-H727; first compound 50 µM
  relative viability: 0.461
NCI-H727; first compound 158.11 µM
  relative viability: 0.339
NCI-H727; first compound 500 µM
  relative viability: 0.334
HCC-44; first compound 5 µM
  relative viability: 0.432
HCC-44; first compound 15.81 µM
  relative viability: 0.405
HCC-44; first compound 50 µM
  relative viability: 0.501
HCC-44; first compound 158.11 µM
  relative viability: 0.489
HCC-44; first compound 500 µM
  relative viability: 0.0788
NCI-H2347; first compound 5 µM
  relative viability: 0.325
NCI-H2347; first compound 15.81 µM
  relative viability: 0.407
NCI-H2347; first compound 50 µM
  relative viability: 0.336
NCI-H2347; first compound 158.11 µM
  relative viability: 0.373
NCI-H2347; first compound 500 µM
  relative viability: 0.456
HCC-78; first compound 5 µM
  relative viability: 0.351
HCC-78; first compound 15.81 µM
  relative viability: 0.377
HCC-78; first compound 50 µM
  relative viability: 0.373
HCC-78; first compound 158.11 µM
  relative viability: 0.351
HCC-78; first compound 500 µM
  relative viability: 0.4
SW 1573; first compound 5 µM
  relative viability: 0.592
SW 1573; first compound 15.81 µM
  relative viability: 0.444
SW 1573; first compound 50 µM
  relative viability: 0.498
SW 1573; first compound 158.11 µM
  relative viability: 0.0962
SW 1573; first compound 500 µM
  relative viability: 0.056
NCI-H1734; first compound 5 µM
  relative viability: 0.58
NCI-H1734; first compound 15.81 µM
  relative viability: 0.55
NCI-H1734; first compound 50 µM
  relative viability: 0.571
NCI-H1734; first compound 158.11 µM
  relative viability: 0.325
NCI-H1734; first compound 500 µM
  relative viability: 0.1
BEN; first compound 5 µM
  relative viability: 0.289
BEN; first compound 15.81 µM
  relative viability: 0.298
BEN; first compound 50 µM
  relative viability: 0.304
BEN; first compound 158.11 µM
  relative viability: 0.265
BEN; first compound 500 µM
  relative viability: 0.28
NCI-H2009; first compound 5 µM
  relative viability: 0.599
NCI-H2009; first compound 15.81 µM
  relative viability: 0.58
NCI-H2009; first compound 50 µM
  relative viability: 0.46
NCI-H2009; first compound 158.11 µM
  relative viability: 0.0782
NCI-H2009; first compound 500 µM
  relative viability: 0.0289
NCI-H2405; first compound 5 µM
  relative viability: 0.638
NCI-H2405; first compound 15.81 µM
  relative viability: 0.582
NCI-H2405; first compound 50 µM
  relative viability: 0.588
NCI-H2405; first compound 158.11 µM
  relative viability: 0.533
NCI-H2405; first compound 500 µM
  relative viability: 0.513
LOU-NH91; first compound 5 µM
  relative viability: 0.703
LOU-NH91; first compound 15.81 µM
  relative viability: 0.65
LOU-NH91; first compound 50 µM
  relative viability: 0.703
LOU-NH91; first compound 158.11 µM
  relative viability: 0.686
LOU-NH91; first compound 500 µM
  relative viability: 0.672
